Where only a bound is given, the exact number is not on record here.

One assay concerns NL-RLuc virus (recombinant NL4-3 proviral clone with Renilla Luciferase gene). The assay can be described thus: Inhibition of HIV replication (NL-RLuc reporter virus in MT-2 cells). It is filed as cell-based. To be noted: MT-2 cells infected with NL-RLuc virus, 5 days of incubation, luciferase readout; read-out: Activity. An excerpt: Inhibition of HIV replication: A recombinant NL-RLuc proviral clone was constructed in which a section of the nef gene from NL4-3 was replaced with the Renilla Luciferase gene. This virus is fully infectious and can undergo multiple cycles of replication in cell culture. In addition, the luciferous reporter provides a simple and easy method for quantitating the extent of virus growth and consequently, the antiviral activity of test compounds. The plasmid pNLRLuc contains the proviral NL-Rluc DNA cloned into pUC18 at the PvuII site. The NL-RLuc virus was prepared by transfection of 293T cells with the plasmid pNLRLuc. Transfections were performed using the LipofectAMINE PLUS kit from Invitrogen (Carlsbad, Calif.) according to the manufacturer and the virus generated was titered in MT-2 cells. For susceptibility analyses, the titrated virus was used to infect MT-2 cells in the presence of compound, and after 5 days of incubation, cells were processed and quantitated for virus growth by the amount of expressed luciferase. Assay media was RPMI 1640 supplemented with 10% heat inactivated fetal bovine serum (FBS), 100 units/ml penicillin G/100 units/ml streptomycin, 10 mM HEPES buffer pH 7.55 and 2 mM L-glutamine. The results from at least 2 experiments were used to calculate the EC50 values. Luciferase was quantitated using the Dual Luciferase kit from Promega (Madison, Wis.). Susceptibility of viruses to compounds was determined by incubation in the presence of serial dilutions of the compound. The 50% effective concentration (EC50) was calculated by using the exponential form of the median effect equation where (Fa)=1/[1+(ED50/drug conc.)^m] (Johnson V A, Byington R T. Infectivity Assay. In Techniques in HIV Research. ed. Aldovini A, Walker B D. 71-76. New York: Stockton Press.1990). Activity equal to A refers to a compound having an EC50≤100 nM, while B and C denote compounds having an EC50 between 100 nM and 1 uM (B) or >1 uM (C).
For the molecule “(S)-2-(tert-Butoxy)-2-(4-(4,4-dimethylpiperidin-1-yl)-5-(3-(1-(4-fluorobenzyl)-1H-tetrazol-5-yl)phenyl)-2,6-dimethylpyridin-3-yl)acetic acid and/or (S)-2-(tert-Butoxy)-2-(4-(4,4-dimethylpiperidin-1-yl)-5-(3-(2-(4-fluorobenzyl)-2H-tetrazol-5-yl)phenyl)-2,6-dimethylpyridin-3-yl)acetic acid [Example 87]”, the EC50 was < 0.1 µM.

On to “(S)-2-(tert-Butoxy)-2-(4-(4,4-dimethylpiperidin-1-yl)-5-(4-(1-(4-fluorobenzyl)-1H-tetrazol-5-yl)phenyl)-2,6-dimethylpyridin-3-yl)acetic acid and/or (S)-2-(tert-Butoxy)-2-(4-(4,4-dimethylpiperidin-1-yl)-5-(4-(2-(4-fluorobenzyl)-2H-tetrazol-5-yl)phenyl)-2,6-dimethylpyridin-3-yl)acetic acid [Example 86]”, for which the EC50 is < 0.1 µM.

The same assay, now with this note: Renilla, NL43, 120 h, read-out: Activity.
On to `Cc1nc(C)c([C@H](OC(C)(C)C)C(=O)O)c(N2CCC(C)(C)CC2)c1-c1ccc(CCCc2ccc(F)cc2)cc1` [Example 52, (S)-2-(tert-Butoxy)-2-(4-(4,4-dimethylpiperidin-1-yl)-5-(4-(3-(4-fluorophenyl)propyl)phenyl)-2,6-dimethylpyridin-3-yl)acetic acid], for which the EC50 was < 0.1 µM.

For the molecule `CCC1(C)CCN(c2c(-c3ccc(C(=O)NCc4ccccc4)cc3)c(C)nc(C)c2[C@H](OC(C)(C)C)C(=O)O)CC1` [Example 56, (S)-2-(5-(4-(Benzylcarbamoyl)phenyl)-4-(4-ethyl-4-methylpiperidin-1-yl)-2,6-dimethylpyridin-3-yl)-2-(tert-butoxy)acetic acid], the EC50 was < 0.1 µM.

Turning to `Cc1nc(C)c([C@H](OC(C)(C)C)C(=O)O)c(N2CCC(C)(C)CC2)c1-c1ccc(/S(CCc2ccc(F)cc2)=N/C(=O)OC(C)(C)C)cc1` (stereo partly drawn) [Example 80, (2S)-2-(tert-Butoxy)-2-(5-(4-((E)-N-(tert-butoxycarbonyl)-S-(4-fluorophenethyl)sulfinimidoyl)phenyl)-4-(4,4-dimethylpiperidin-1-yl)-2,6-dimethylpyridin-3-yl)acetic acid], the EC50 is < 0.1 µM.

Consider `Cc1nc(C)c([C@H](OC(C)(C)C)C(=O)O)c(N2CCC(C)(C)CC2)c1-c1ccc(S(=O)(=O)C(C)C)cc1` [Example 30, (S)-2-(tert-Butoxy)-2-(4-(4,4-dimethylpiperidin-1-yl)-5-(4-(isopropylsulfonyl)phenyl)-2,6-dimethylpyridin-3-yl)acetic acid], for which the EC50 is < 0.1 µM.

Consider `Cc1nc(C)c([C@H](OC(C)(C)C)C(=O)O)c(N2CCC(C)(C)CC2)c1-c1ccc(C(=O)NCc2ccccc2)cc1` [Example 24, (S)-2-(5-(4-(Benzylcarbamoyl)phenyl)-4-(4,4-dimethylpiperidin-1-yl)-2,6-dimethylpyridin-3-yl)-2-(tert-butoxy)acetic acid], for which the EC50 is < 0.1 µM.

In the case of `Cc1nc(C)c([C@H](OC(C)(C)C)C(=O)O)c(N2CC(C)(C)C2)c1-c1ccc(C(=O)NCc2ccccc2)cc1` [Example 57, (S)-2-(5-(4-(Benzylcarbamoyl)phenyl)-4-(3,3-dimethylazetidin-1-yl)-2,6-dimethylpyridin-3-yl)-2-(tert-butoxy)acetic acid], the EC50 is > 1 µM.

For `Cc1nc(C)c([C@H](OC(C)(C)C)C(=O)O)c(N2CCC(C)(C)CC2)c1-c1cccc(-c2nnn[nH]2)c1` [Example 47, (S)-2-(5-(3-(1H-Tetrazol-5-yl)phenyl)-4-(4,4-dimethylpiperidin-1-yl)-2,6-dimethylpyridin-3-yl)-2-(tert-butoxy)acetic acid], the EC50 is > 1 µM.

Regarding `Cc1nc(C)c([C@H](OC(C)(C)C)C(=O)O)c(N2CCC(C)(F)CC2)c1-c1ccc(C(=O)NCc2ccccc2)cc1` [Example 65, (S)-2-(5-(4-(Benzylcarbamoyl)phenyl)-4-(4-fluoro-4-methylpiperidin-1-yl)-2,6-dimethylpyridin-3-yl)-2-(tert-butoxy)acetic acid], the EC50 was < 0.1 µM.

For the molecule `Cc1nc(C)c([C@H](OC(C)(C)C)C(=O)O)c(N2CCC(C(F)(F)F)CC2)c1-c1ccc(C(=O)NCc2ccccc2)cc1` [Example 54, (S)-2-(5-(4-(Benzylcarbamoyl)phenyl)-2,6-dimethyl-4-(4-(trifluoromethyl)piperidin-1-yl)pyridin-3-yl)-2-(tert-butoxy)acetic acid], the EC50 is < 0.1 µM.

As to `Cc1nc(C)c([C@H](OC(C)(C)C)C(=O)O)c(N2CCC(C)(C)CC2)c1-c1ccc(C2(C#N)CC2)cc1` [Example 27, (S)-2-(tert-Butoxy)-2-(5-(4-(1-cyanocyclopropyl)phenyl)-4-(4,4-dimethylpiperidin-1-yl)-2,6-dimethylpyridin-3-yl)acetic acid], the EC50 is < 0.1 µM.

For `Cc1nc(C)c([C@H](OC(C)(C)C)C(=O)O)c(N2CCC(C)(C)CC2)c1-c1ccc(-c2cccc3ccccc23)cc1` [Example 18, (S)-2-(tert-Butoxy)-2-(4-(4,4-dimethylpiperidin-1-yl)-2,6-dimethyl-5-(4-(naphthalen-1-yl)phenyl)pyridin-3-yl)acetic acid], the EC50 is < 0.1 µM.

For `Cc1nc(C)c([C@H](OC(C)(C)C)C(=O)O)c(N2CCC(C)(C)CC2)c1-c1ccc(-c2ncc(Cc3ccc(F)cc3)s2)cc1` [Example 3, (S)-2-(tert-Butoxy)-2-(4-(4,4-dimethylpiperidin-1-yl)-5-(4-(5-(4-fluorobenzyl)thiazol-2-yl)phenyl)-2,6-dimethylpyridin-3-yl)acetic acid], the EC50 is < 0.1 µM.

`Cc1nc(C)c([C@H](OC(C)(C)C)C(=O)O)c(N2CCC(c3ccccc3)CC2)c1-c1ccc(C(=O)NCc2ccccc2)cc1` [Example 62, (S)-2-(5-(4-(Benzylcarbamoyl)phenyl)-2,6-dimethyl-4-(4-phenylpiperidin-1-yl)pyridin-3-yl)-2-(tert-butoxy)acetic acid]: the EC50 was > 1 µM.

Turning to `Cc1nc(C)c([C@H](OC(C)(C)C)C(=O)O)c(N2CCC(C)(C)CC2)c1-c1ccc(-c2ccccn2)cc1` [Example 13, (S)-2-(tert-butoxy)-2-(4-(4,4-dimethylpiperidin-1-yl)-2,6-dimethyl-5-(4-(pyridin-2-yl)phenyl)pyridin-3-yl)acetic acid], the EC50 is < 0.1 µM.

Regarding `CC(=O)NNC(=O)c1ccc(-c2c(C)nc(C)c([C@H](OC(C)(C)C)C(=O)O)c2N2CCC(C)(C)CC2)cc1` [Example 37, (S)-2-(5-(4-(2-Acetylhydrazinecarbonyl)phenyl)-4-(4,4-dimethylpiperidin-1-yl)-2,6-dimethylpyridin-3-yl)-2-(tert-butoxy)acetic acid], the EC50 is > 1 µM.

`Cc1nc(C)c([C@H](OC(C)(C)C)C(=O)O)c(N2CCC(C)(C)CC2)c1-c1ccc(-c2nnn[nH]2)cc1` [Example 46, (S)-2-(5-(4-(1H-Tetrazol-5-yl)phenyl)-4-(4,4-dimethylpiperidin-1-yl)-2,6-dimethylpyridin-3-yl)-2-(tert-butoxy)acetic acid]: the EC50 is > 1 µM.

As to `Cc1nc(C)c([C@H](OC(C)(C)C)C(=O)O)c(N2CCC(C)(C)CC2)c1-c1ccc(C(=O)NC(c2ccccc2)C(F)(F)F)cc1` (stereo partly drawn) [Example 88, (2S)-2-(tert-Butoxy)-2-(4-(4,4-dimethylpiperidin-1-yl)-2,6-dimethyl-5-(4-((2,2,2-trifluoro-1-phenylethyl)carbamoyl)phenyl)pyridin-3-yl)acetic acid], the EC50 is < 0.1 µM.

For `Cc1nc(C)c([C@H](OC(C)(C)C)C(=O)O)c(N2CCC(C)(C)CC2)c1-c1cc(F)c(CO)c(F)c1` [Example 34, (S)-2-(tert-Butoxy)-2-(5-(3,5-difluoro-4-(hydroxymethyl)phenyl)-4-(4,4-dimethylpiperidin-1-yl)-2,6-dimethylpyridin-3-yl)acetic acid], the EC50 is < 0.1 µM.

For `Cc1nc(C)c([C@H](OC(C)(C)C)C(=O)O)c(N2CCC(C)(C)CC2)c1-c1ccc(C(=O)CCc2ccc(F)cc2)cc1` [Example 50, (S)-2-(tert-Butoxy)-2-(4-(4,4-dimethylpiperidin-1-yl)-5-(4-(3-(4-fluorophenyl)propanoyl)phenyl)-2,6-dimethylpyridin-3-yl)acetic acid], the EC50 was < 0.1 µM.

`Cc1nc(C)c([C@H](OC(C)(C)C)C(=O)O)c(N2CCC(Cc3ccccc3)CC2)c1-c1ccc(C(=O)NCc2ccccc2)cc1` [Example 64, (S)-2-(5-(4-(Benzylcarbamoyl)phenyl)-4-(4-benzylpiperidin-1-yl)-2,6-dimethylpyridin-3-yl)-2-(tert-butoxy)acetic acid]: the EC50 was in the range of 0.1 to 1 µM.

For the molecule `Cc1cccc(-c2ccc(-c3c(C)nc(C)c([C@H](OC(C)(C)C)C(=O)O)c3N3CCC(C)(C)CC3)cc2)c1` [Example 17, (S)-2-(tert-Butoxy)-2-(4-(4,4-dimethylpiperidin-1-yl)-2,6-dimethyl-5-(3′-methyl-[1,1′-biphenyl]-4-yl)pyridin-3-yl)acetic acid], the EC50 is < 0.1 µM.

The assay is the same for the next values; noted with them: Renilla, NL43, 120 h, read-out: EC50 μM.
As for `Cc1nc(C)c([C@H](OC(C)(C)C)C(=O)O)c(N2CC(C)(C)C2)c1-c1ccc(C(=O)NCc2ccccc2)cc1` [Example 57, (S)-2-(5-(4-(Benzylcarbamoyl)phenyl)-4-(3,3-dimethylazetidin-1-yl)-2,6-dimethylpyridin-3-yl)-2-(tert-butoxy)acetic acid], the EC50 was 2.54 µM.

`CC(=O)NNC(=O)c1ccc(-c2c(C)nc(C)c([C@H](OC(C)(C)C)C(=O)O)c2N2CCC(C)(C)CC2)cc1` [Example 37, (S)-2-(5-(4-(2-Acetylhydrazinecarbonyl)phenyl)-4-(4,4-dimethylpiperidin-1-yl)-2,6-dimethylpyridin-3-yl)-2-(tert-butoxy)acetic acid]: the EC50 turned out to be 1.15 µM.

On to `Cc1cccc(-c2ccc(-c3c(C)nc(C)c([C@H](OC(C)(C)C)C(=O)O)c3N3CCC(C)(C)CC3)cc2)c1` [Example 17, (S)-2-(tert-Butoxy)-2-(4-(4,4-dimethylpiperidin-1-yl)-2,6-dimethyl-5-(3′-methyl-[1,1′-biphenyl]-4-yl)pyridin-3-yl)acetic acid], for which the EC50 is 0.053 µM.

These data come from patent US20180170904A1, “PYRIDIN-3-YL ACETIC ACID DERIVATIVES AS INHIBITORS OF HUMAN IMMUNODEFICIENCY VIRUS REPLICATION” (priority 2015, published 2018).
